# Experimental data: US11319304B2, “Pyridine quinoline compounds as MGLUR4 allosteric potentiators, compositions, and methods of treating neurological dysfunction” (Vanderbilt University, priority 2017, dated 2022)
# Target: mGluR4 (Homo sapiens, UniProt Q14833)
# Assay: mGlu4 PAM potentiation assay, CHO cells transfected with human mGluR4, Ca2+-sensitive dye fluorescence
# Assay type: cell-based
# Description: The disclosed compounds and compositions can be evaluated for their ability to act as a potentiator of metabotropic glutamate receptor activity, in particular mGluR4 activity, by any suitable known methodology known in the art. For example, Chinese Hamster Ovary (CHO) cells transfected with human mGluR4 or HEK cells co-transfected with rat mGluR4 and the G-protein regulated Inwardly Rectifying Potassium channel (GIRK) were plated in clear bottom, assay plates for assay in a Hamamatsu FDSS Fluorometric Plate Reader. The cells were loaded with either a Ca2+-sensitive fluorescent dye or the thallium responsive dye and the plates were washed and placed into a suitable kinetic plate reader. For human mGluR4 assays, a fluorescence baseline was established for 3-5 seconds, the disclosed compounds were then added to the cells, and the response in cells was measured. Approximately two and a half minutes later, a concentration of mGluR4 orthosteric agonist (e.g. glutamate, L-AP4, or L-SOP) eliciting approximately 20% (EC20) of the maximal agonist response was added to the cells, and the response was measured. Two minutes later, a concentration of mGluR4 agonist (e.g. glutamate, L-AP4, or L-SOP) eliciting 80% (EC80) of the maximal agonist response was added to the cells, and the response was measured. For rat mGluR4/GIRK experiments, a baseline was established for approximately five seconds, disclosed compounds were added, and either an EC20 or EC80 concentration of agonist was added approximately two and one half minutes later. Potentiation or antagonism of the agonist response of mGluR4 by the disclosed compounds was observed as an increase or decrease in response to the EC20 concentration of agonist in the presence of compound compared to the response to agonist in the absence of compound. Similarly, potentiation or antagonism of the agonist response of mGluR4 by the disclosed Compounds was observed as an increase or decrease in response to the EC80 concentration of agonist in the presence of compound compared to the response to agonist in the absence of compound.
# The above described assay operated in two modes. In the first mode, a range of concentrations of the disclosed compounds are added to cells, followed by a single fixed concentration of agonist. If the compound acts as a potentiatior, an EC50 value for potentiation and a maximum extent of potentiation by the compound at this concentration of agonist is determined by non-linear curve fitting. If the compound acts as an antagonist, an IC50 value is determined by non-linear curve fitting. In the second mode, several fixed concentrations of the disclosed compounds are added to various wells on a plate, followed by a range in concentrations of agonist for each concentration of disclosed compound. The EC50 values for the agonist at each concentration of compound are determined by non-linear curve fitting. A decrease in the EC50 value of the agonist with increasing concentrations of the sample compound (a leftward shift of the agonist concentration-response curve) is an indication of the degree of mGluR4 potentiation at a given concentration of the sample compound. A decrease in the maximal response of the agonist with increasing concentrations of the sample compounds, with or without a rightward shift in agonist potency, is an indication of the degree of antagonism at mGluR4. The second mode also indicates whether the sample compounds also affect the maximum response to mGluR4 to agonists.
# mGluR4, sequence (Q14833 33-912 limits assumed): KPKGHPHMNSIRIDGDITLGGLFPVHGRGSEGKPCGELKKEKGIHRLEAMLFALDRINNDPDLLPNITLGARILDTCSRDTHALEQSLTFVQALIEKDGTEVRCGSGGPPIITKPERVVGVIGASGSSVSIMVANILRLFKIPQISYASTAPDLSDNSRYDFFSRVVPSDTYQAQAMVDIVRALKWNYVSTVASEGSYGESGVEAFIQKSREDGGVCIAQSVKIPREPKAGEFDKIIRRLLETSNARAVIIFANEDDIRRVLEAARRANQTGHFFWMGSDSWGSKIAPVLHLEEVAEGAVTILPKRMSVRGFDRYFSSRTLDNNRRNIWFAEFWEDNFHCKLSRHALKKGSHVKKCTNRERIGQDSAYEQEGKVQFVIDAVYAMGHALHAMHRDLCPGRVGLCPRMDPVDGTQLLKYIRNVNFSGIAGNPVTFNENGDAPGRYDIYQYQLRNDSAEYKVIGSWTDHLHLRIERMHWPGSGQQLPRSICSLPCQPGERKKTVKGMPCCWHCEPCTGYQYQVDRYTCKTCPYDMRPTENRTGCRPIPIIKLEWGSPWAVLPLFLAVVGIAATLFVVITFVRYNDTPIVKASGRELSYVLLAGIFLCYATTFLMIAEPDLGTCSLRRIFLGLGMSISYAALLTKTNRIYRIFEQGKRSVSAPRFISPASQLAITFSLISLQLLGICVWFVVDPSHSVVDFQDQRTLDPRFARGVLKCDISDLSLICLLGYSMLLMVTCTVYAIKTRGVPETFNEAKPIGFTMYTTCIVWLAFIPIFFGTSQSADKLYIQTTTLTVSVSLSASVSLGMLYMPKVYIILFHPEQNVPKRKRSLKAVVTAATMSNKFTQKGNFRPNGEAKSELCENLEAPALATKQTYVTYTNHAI
row,SMILES,EC50 [µM]
1,O=C(Nc1ccc2c(OCC3CCOCC3)nccc2c1)c1ccccn1 [Compound 1],0.056
2,Nc1cccnc1C(=O)Nc1ccc2c(OCC3CCOCC3)nccc2c1 [Compound 2],0.108
3,CCOCCOc1nccc2cc(NC(=O)c3ccccn3)ccc12 [Compound 3],0.436
4,CCOCCOc1nccc2cc(NC(=O)c3ncccc3N)ccc12 [Compound 4],0.354
5,CCOCCOc1nccc2cc(NC(=O)c3ncccc3O)ccc12 [Compound 5],0.229
6,CO[C@H](C)COc1nccc2cc(NC(=O)c3ccccn3)ccc12 [Compound 6],0.166
7,CO[C@H](C)COc1nccc2cc(NC(=O)c3ncccc3N)ccc12 [Compound 7],0.152
8,O=C(Nc1ccc2c(OCC3CCCCO3)nccc2c1)c1ccccn1 (stereo not drawn) [Compound 8],0.159
9,Nc1cccnc1C(=O)Nc1ccc2c(OCC3CCCCO3)nccc2c1 (stereo not drawn) [Compound 9],0.242
10,Nc1cccnc1C(=O)Nc1ccc2c(O[C@H]3CCOC3)nccc2c1 [Compound 10],0.529
11,O=C(Nc1ccc2c(O[C@H]3CCOC3)nccc2c1)c1ncccc1O [Compound 11],0.883
12,O=C(Nc1ccc2c(OC3CCOCC3)nccc2c1)c1ccccn1 [Compound 12],0.411
13,Nc1cccnc1C(=O)Nc1ccc2c(OC3CCOCC3)nccc2c1 [Compound 13],0.29
14,O=C(Nc1ccc2c(OC3CCOCC3)nccc2c1)c1ncccc1O [Compound 14],0.331
15,O=C(Nc1ccc2c(OCC3CCOC3)nccc2c1)c1ccccn1 (stereo not drawn) [Compound 15],0.0595
16,Nc1cccnc1C(=O)Nc1ccc2c(OCC3CCOC3)nccc2c1 (stereo not drawn) [Compound 16],0.0714
17,O=C(Nc1ccc2c(OCC3CCOC3)nccc2c1)c1ncccc1O (stereo not drawn) [Compound 17],0.0563
18,O=C(Nc1ccc2c(OCC3CCOC3)nccc2c1)c1ncccc1F (stereo not drawn) [Compound 18],0.262
19,O=C(Nc1ccc2c(OCC3CCOC3)nccc2c1)c1ncccc1Cl (stereo not drawn) [Compound 19],0.339
20,COCCOc1nccc2cc(NC(=O)c3ccccn3)ccc12 [Compound 20],0.739
21,COCCOc1nccc2cc(NC(=O)c3ncccc3N)ccc12 [Compound 21],0.227
22,COCCOc1nccc2cc(NC(=O)c3ncccc3O)ccc12 [Compound 22],0.502
23,CC1(C)CC(Oc2nccc3cc(NC(=O)c4ccccn4)ccc23)CCO1 (stereo not drawn) [Compound 23],0.146
24,CC1(C)CC(Oc2nccc3cc(NC(=O)c4ncccc4N)ccc23)CCO1 (stereo not drawn) [Compound 24],0.31
25,CC1(C)CC(Oc2nccc3cc(NC(=O)c4ncccc4O)ccc23)CCO1 (stereo not drawn) [Compound 25],0.147

row,SMILES,EC50 [µM]
1,CC(C)OCCOc1nccc2cc(NC(=O)c3ccccn3)ccc12 [Compound 26],0.264
2,CC(C)OCCOc1nccc2cc(NC(=O)c3ncccc3N)ccc12 [Compound 27],0.286
3,CC(C)(C)OCCOc1nccc2cc(NC(=O)c3ccccn3)ccc12 [Compound 28],0.419
4,CC(C)(C)OCCOc1nccc2cc(NC(=O)c3ncccc3N)ccc12 [Compound 29],0.794
5,CC(C)(C)OCCOc1nccc2cc(NC(=O)c3ncccc3O)ccc12 [Compound 30],0.493
6,CC1(COc2nccc3cc(NC(=O)c4ccccn4)ccc23)CCOCC1 [Compound 31],0.246
7,CC1(COc2nccc3cc(NC(=O)c4ncccc4N)ccc23)CCOCC1 [Compound 32],0.325
8,CC1(COc2nccc3cc(NC(=O)c4ncccc4O)ccc23)CCOCC1 [Compound 33],0.269
9,CC1(C)CC(COc2nccc3cc(NC(=O)c4ccccn4)ccc23)CCO1 (stereo not drawn) [Compound 34],0.115
10,CC1(C)CC(COc2nccc3cc(NC(=O)c4ncccc4N)ccc23)CCO1 (stereo not drawn) [Compound 35],0.227
11,CC1(C)CC(Oc2nccc3cc(NC(=O)c4ccccn4)ccc23)C(C)(C)O1 (stereo not drawn) [Compound 36],0.94
12,CC1CC(COc2nccc3cc(NC(=O)c4ccccn4)ccc23)CCO1 (stereo not drawn) [Compound 37],0.0886
13,CC1CC(COc2nccc3cc(NC(=O)c4ncccc4N)ccc23)CCO1 (stereo not drawn) [Compound 38],0.135
14,CC1CC(COc2nccc3cc(NC(=O)c4ncccc4O)ccc23)CCO1 (stereo not drawn) [Compound 39],0.302
15,O=C(Nc1ccc2c(OC3CCOCC3F)nccc2c1)c1ccccn1 (stereo not drawn) [Compound 40],0.183
16,Nc1cccnc1C(=O)Nc1ccc2c(OC3CCOCC3F)nccc2c1 (stereo not drawn) [Compound 41],0.0836
17,O=C(Nc1ccc2c(OC3CCOCC3F)nccc2c1)c1ncccc1O (stereo not drawn) [Compound 42],0.0922
18,CC1CC(Oc2nccc3cc(NC(=O)c4ccccn4)ccc23)CCO1 (stereo not drawn) [Compound 43],0.908
19,CC1CC(Oc2nccc3cc(NC(=O)c4ncccc4N)ccc23)CCO1 (stereo not drawn) [Compound 44],0.804
20,CC1CC(Oc2nccc3cc(NC(=O)c4ncccc4O)ccc23)CCO1 (stereo not drawn) [Compound 45],0.447
21,CC1COCC1COc1nccc2cc(NC(=O)c3ccccn3)ccc12 (stereo not drawn) [Compound 46],0.339
22,CC1COCC1COc1nccc2cc(NC(=O)c3ncccc3N)ccc12 (stereo not drawn) [Compound 47],0.456
23,CC1(C)CC(COc2nccc3cc(NC(=O)c4ccccn4)ccc23)CO1 (stereo not drawn) [Compound 48],0.452
24,CC1(C)CC(COc2nccc3cc(NC(=O)c4ncccc4N)ccc23)CO1 (stereo not drawn) [Compound 49],0.665
25,CO[C@@H](C)COc1nccc2cc(NC(=O)c3ccccn3)ccc12 [Compound 51],0.364

row,SMILES,EC50 [µM]
1,CO[C@@H](C)COc1nccc2cc(NC(=O)c3ncccc3N)ccc12 [Compound 52],0.288
2,CO[C@@H](C)COc1nccc2cc(NC(=O)c3ncccc3O)ccc12 [Compound 53],0.244
3,O=C(Nc1ccc2c(OC3CCSC3)nccc2c1)c1ccccn1 (stereo not drawn) [Compound 54],0.915
4,Nc1cccnc1C(=O)Nc1ccc2c(OC3CCS(=O)(=O)C3)nccc2c1 (stereo not drawn) [Compound 55],0.634
5,O=C(Nc1ccc2c(OCC3CCOC3)nccc2c1)c1nccs1 (stereo not drawn) [Compound 56],0.21
6,O=C(Nc1ccc2c(OCC3CCOC3)nccc2c1)c1ccsn1 (stereo not drawn) [Compound 57],0.159
7,O=C(Nc1ccc2c(OCC3CCOC3)nccc2c1)c1ncc[nH]1 (stereo not drawn) [Compound 58],0.217
8,Cn1ccnc1C(=O)Nc1ccc2c(OCC3CCOC3)nccc2c1 (stereo not drawn) [Compound 59],0.817
9,O=C(Nc1ccc2c(OCC3CCOC3)ncc(F)c2c1)c1ccccn1 (stereo not drawn) [Compound 60],0.0829
10,Nc1cccnc1C(=O)Nc1ccc2c(OC[C@@H]3CCOC3)nccc2c1 [Compound 61],0.114
11,Nc1cccnc1C(=O)Nc1ccc2c(OC[C@H]3CCOC3)nccc2c1 [Compound 62],0.063
12,Nc1cccnc1C(=O)Nc1ccc2c(OCC3CCOC3)ncc(F)c2c1 (stereo not drawn) [Compound 63],0.0887
13,O=C(Nc1ccc2c(OCC3CCOCC3)ncc(F)c2c1)c1ccccn1 [Compound 65],0.144
14,Nc1cccnc1C(=O)Nc1ccc2c(OCC3CCOCC3)ncc(F)c2c1 [Compound 66],0.152
15,O=C(Nc1ccc2c(OCC3CCOCC3)ncc(F)c2c1)c1ncccc1O [Compound 67],0.246
16,Nc1cccnc1C(=O)Nc1ccc2c(OCC3COCCO3)ncc(F)c2c1 (stereo not drawn) [Compound 68],0.0905
17,O=C(Nc1ccc2c(OCC3COCCO3)ncc(F)c2c1)c1ccccn1 (stereo not drawn) [Compound 69],0.421
18,O=C(Nc1ccc2c(OCC3COCCO3)ncc(F)c2c1)c1ncccc1O (stereo not drawn) [Compound 70],0.71
19,Nc1cccnc1C(=O)Nc1ccc2c(O[C@H]3CCOC3)ncc(F)c2c1 [Compound 71],0.493
20,O=C(Nc1ccc2c(OCC3CCOC3)nccc2c1)c1ccc(F)cn1 (stereo not drawn) [Compound 72],0.211
21,O=C(Nc1ccc2c(OCC3CCOC3)nccc2c1)c1ncc(F)cc1F (stereo not drawn) [Compound 73],0.992
22,O=C(Nc1ccc2c(OCC3CCOC3)nccc2c1)c1nc(F)ccc1F (stereo not drawn) [Compound 74],0.8
23,O=C(Nc1ccc2c(NC3CC(F)(F)C3)nccc2c1)c1ccccn1 [Compound 75],0.715
24,CC1(C)CC(Nc2nccc3cc(NC(=O)c4ncccc4N)ccc23)CCO1 (stereo not drawn) [Compound 76],0.616
25,CC1(C)COCCC1Nc1nccc2cc(NC(=O)c3ncccc3N)ccc12 (stereo not drawn) [Compound 77],0.922
